{"source": "patent US20060111443A1", "about": "“Preventive therapeutic composition for muscular fatigue, pulled muscle and disease attributed thereto” (priority 2002, published 2006)", "key": {"[1]": {"settings": "repeated administration of 300 mg a day; cited from earlier work"}, "healthy subjects": {"system": "healthy subjects", "test": "Analyzing test of blood components (myoglobin, lactic acid, CPK) after exercise stress", "format": "in vivo, human", "settings": "value just after exercise stress = 100%", "protocol": "To 20 healthy subjects (14 males and 6 females), was given an exercise stress of 15 km running within a limited time of 2 hours. The 20 subjects who run the whole distance within the limited time were divided into 2 groups by the arrival order, that is, one group consisting of 10 subjects of odd-numbered order of arrival (8 male subjects and 2 female subjects) and the other group consisting of 10 subjects of even-numbered order of arrival (6 male subjects and 4 female subjects). To the group of odd numbers was administered tranilast (hereinafter referred to as Medicine administration group) and to the group of even numbers was not administered (hereinafter referred to as Control group). […]\nIn each group, bloods were collected at a time of just before, just after, 3 days and 7 days after the exercise stress. And, blood components considered relevant to muscular fatigue and muscular damage (myoglobin, lactic acid and CPK) were analyzed, and relative degrees of changes of blood concentrations which are converted into relative values to the concentrations just after the exercise stress set as 100% were calculated."}}, "data": [{"smiles": "COc1ccc(/C=C/C(=O)Nc2ccccc2C(=O)O)cc1OC", "note": "[tranilast, N-(3,4-dimethoxycinnnamoyl)anthranilic acid]", "values": [{"measurement": "time at which tranilast concentration in blood reached the maximum", "setting": "[1]", "value": 2, "unit": "days"}, {"measurement": "relative degree of change of blood concentration of CPK", "setting": "healthy subjects; 3 days after exercise stress, control 160% or more", "value": "about 110%"}, {"measurement": "relative degree of change of blood concentration of CPK", "setting": "healthy subjects; 7 days after exercise stress, control about 90%", "value": "about 60%"}]}]}
